Laboratory results reported in PubChem BioAssay (NCI).
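Test compounds were applied to cells in 96-well plates for 48 hours at 5 doses. TGI denotes the concentration required for complete inhibition of growth.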 Where a SMILES comes first, the peptide text is derived from it. [ ]: non-standard residue; d: D form. pGlu = O=C1CC[CH](C(=O)O)N1

Legend:
Test in all cases: growth of human tumour cells (NCI), 48 h
MALME-3M melanoma = test system: MALME-3M melanoma
ACHN renal = test system: ACHN renal
HOP-92 NSCLC = test system: HOP-92 NSCLC
SNB-75 CNS = test system: SNB-75 CNS
MDA-MB-231 breast = test system: MDA-MB-231 breast
T-47D breast = test system: T-47D breast
786-0 renal = test system: 786-0 renal
CAKI-1 renal = test system: CAKI-1 renal
SR leukemia = test system: SR leukemia
MOLT-4 leukemia = test system: MOLT-4 leukemia
SF-268 CNS = test system: SF-268 CNS
NCI-H522 lung = test system: NCI-H522 lung

Row | Compound | TGI (MALME-3M melanoma) | TGI (ACHN renal) | TGI (HOP-92 NSCLC) | TGI (SNB-75 CNS) | TGI (MDA-MB-231 breast) | TGI (T-47D breast) | TGI (786-0 renal) | TGI (CAKI-1 renal) | TGI (SR leukemia) | TGI (MOLT-4 leukemia) | TGI (SF-268 CNS) | TGI (NCI-H522 lung)
1 | COc1ccc(/C=C2\N=C(N3CCCC(CO)C3)NC2=O)cc1 (stereo unspecified) | > 100 µM | > 100 µM | > 100 µM | > 100 µM | > 100 µM | > 100 µM | > 100 µM | > 100 µM | > 100 µM | > 100 µM | > 100 µM | > 100 µM
2 | COC(NC(=O)Nc1ccc(C)cc1)(C(F)(F)F)C(F)(F)F | > 100 µM | > 100 µM | 93.3 µM | > 100 µM | 99 µM | 97.7 µM | > 100 µM | – | > 100 µM | 48.6 µM | > 100 µM | 60.1 µM
3 | COC(=O)[C@H](Cc1ccccc1)NC(=O)c1ccc(CNC(=O)/C=C/c2ccc(OCc3ccccc3)cc2)cc1 | 11.5 µM | 33 µM | 9.43 µM | 31.6 µM | 47 µM | 72.2 µM | 19.1 µM | 26 µM | > 100 µM | 28 µM | 28.1 µM | > 100 µM
4 | C=C1C2CCC3C4(C)CCCC(C)(C(=O)O)C4CCC3(C2)C1OC(=O)/C(C)=C/C (stereo unspecified) | > 100 µM | > 100 µM | 54.6 µM | > 100 µM | 46.9 µM | > 100 µM | > 100 µM | > 100 µM | 9.55 µM | – | > 100 µM | > 100 µM
5 | Cn1c(-c2ccc(C=O)o2)ccc1-c1ccc(C=O)o1 | > 100 µM | > 100 µM | > 100 µM | > 100 µM | > 100 µM | > 100 µM | > 100 µM | 36.8 µM | > 100 µM | 80.3 µM | – | –
6 | CC(NC1=NCCO1)c1ccccc1Cl (stereo unspecified) | > 100 µM | > 100 µM | 73 µM | > 100 µM | > 100 µM | > 100 µM | > 100 µM | > 100 µM | > 100 µM | > 100 µM | > 100 µM | > 100 µM
7 | CC1OC(OC2C(O)COC(OC3C(C)OC(OC4C(OC(=O)[C@]56CCC(C)(C)C[C@@H]5C5=CCC7[C@@]8(C)C[C@H](O)[C@H](OC9OC(CO)C(O)C(O)C9O)[C@@](C)(CO)[C@@H]8CC[C@@]7(C)[C@]5(C)CC6)OCC(O)C4O)C(O)C3O)C2O)C(O)C(O)C1O (stereo partly specified) | 64.3 µM | 44.3 µM | 45.2 µM | 39 µM | 40.2 µM | 47.4 µM | 38 µM | 32 µM | 46.9 µM | 48.7 µM | 49.4 µM | > 100 µM
8 | ClCc1nc2ccccc2[nH]1 | > 100 µM | > 100 µM | > 100 µM | > 100 µM | > 100 µM | > 100 µM | > 100 µM | > 100 µM | > 100 µM | > 100 µM | > 100 µM | > 100 µM
9 | COc1ccc(/[N+]([O-])=C/c2ccc(OC(=S)S)c(OC)c2)cc1 | > 100 µM | > 100 µM | 81 µM | 51.1 µM | > 100 µM | 99.5 µM | > 100 µM | 66.7 µM | 63.5 µM | > 100 µM | > 100 µM | > 100 µM
10 | NS(=O)(=O)c1ccc(NC(=O)N/N=C/c2ccccc2[N+](=O)[O-])cc1 | > 100 µM | > 100 µM | > 100 µM | > 100 µM | > 100 µM | > 100 µM | > 100 µM | > 100 µM | > 100 µM | > 100 µM | > 100 µM | > 100 µM
11 | COC(=O)CCc1ccc(CCC(=O)OC)cc1 | > 100 µM | > 100 µM | > 100 µM | > 100 µM | > 100 µM | > 100 µM | > 100 µM | > 100 µM | > 100 µM | > 100 µM | > 100 µM | > 100 µM
12 | CN(C)Cc1cc(Cl)c(O)c(CN(C)C)c1 | > 100 µM | > 100 µM | > 100 µM | > 100 µM | > 100 µM | > 100 µM | > 100 µM | > 100 µM | > 100 µM | – | > 100 µM | > 100 µM
13 | CC(NC(=O)C1CCC(=O)N1)C(=O)N1CCCC1C(N)=O (stereo not drawn) ([pGlu]-Ala-Pro-NH2; configuration not given here) | > 100 µM | > 100 µM | > 100 µM | > 100 µM | > 100 µM | > 100 µM | > 100 µM | > 100 µM | > 100 µM | > 100 µM | > 100 µM | > 100 µM
14 | C#C[C@]1(O)CC[C@H]2[C@@H]3CCC4=C/C(=N\OCCN5CCCCC5)CC[C@]4(C)[C@H]3CC[C@@]21C | 21.6 µM | 22.5 µM | 50.8 µM | 17.1 µM | 29 µM | 19.3 µM | 14.9 µM | 20.5 µM | 5.17 µM | 11.6 µM | 21.7 µM | 6.08 µM
15 | COc1ccc2c(c1)c1c3c(ccc4ncn2c43)N(CCO)CCN=1 | 0.43 µM | 0.543 µM | 5.2 µM | 1.19 µM | 0.511 µM | 1.42 µM | 1.06 µM | 2.51 µM | 0.207 µM | 0.656 µM | 1.86 µM | 0.277 µM
16 | O=C(Nc1ccccc1)N(CCN(Cc1ccccc1)C(=O)Nc1ccccc1)CCN(Nc1ccccc1)C(=O)Nc1ccccc1 | > 100 µM | > 100 µM | > 100 µM | > 100 µM | > 100 µM | > 100 µM | > 100 µM | > 100 µM | > 100 µM | > 100 µM | > 100 µM | > 100 µM
17 | C(=N\c1nc2cc3sc(/N=C/c4ccccc4)nc3cc2s1)/c1ccccc1 | > 100 µM | > 100 µM | > 100 µM | > 100 µM | > 100 µM | > 100 µM | > 100 µM | > 100 µM | > 100 µM | > 80.9 µM | > 100 µM | 97.4 µM
18 | Cc1ncn(-c2ccccc2O)c1C | > 100 µM | > 100 µM | > 100 µM | > 100 µM | > 100 µM | > 100 µM | > 100 µM | > 100 µM | > 100 µM | > 100 µM | > 100 µM | > 100 µM
19 | CCOC(=O)c1c(O)cn2c1[nH]c1cccc3cccc2c31 | > 100 µM | > 100 µM | > 100 µM | > 100 µM | > 100 µM | > 100 µM | > 100 µM | > 100 µM | > 100 µM | > 100 µM | > 100 µM | > 100 µM
20 | Nn1c(CCCCCCCCc2nnc(-c3c(O)ccc4ccccc34)n2N)nnc1-c1c(O)ccc2ccccc12 | > 100 µM | > 100 µM | > 100 µM | > 100 µM | > 100 µM | > 100 µM | > 100 µM | > 100 µM | > 100 µM | > 100 µM | > 100 µM | > 100 µM
21 | C[C@H](Nc1nc(N)c(N=O)c(=O)n1C)C(=O)O | > 10 µM | > 10 µM | > 10 µM | > 10 µM | > 10 µM | > 10 µM | > 10 µM | > 10 µM | > 10 µM | > 10 µM | > 10 µM | > 10 µM
22 | COC(=O)c1cc2c(c(C(=O)OC)c1)CCC2 | > 100 µM | > 100 µM | > 100 µM | > 100 µM | > 100 µM | > 100 µM | > 100 µM | > 100 µM | 86.8 µM | > 100 µM | > 100 µM | > 100 µM
23 | CCOC(=O)c1c(N)sc2c1CC(C)CC2 (stereo unspecified) | > 100 µM | > 100 µM | 74.2 µM | 98.1 µM | > 100 µM | > 100 µM | 55.3 µM | > 100 µM | 86.8 µM | > 100 µM | > 100 µM | 40.5 µM
24 | O=C(Cc1ccc2ccccc2c1)NCc1ccc(C(=O)NCCc2ccccc2)cc1 | > 100 µM | > 100 µM | > 100 µM | > 100 µM | > 100 µM | > 100 µM | > 100 µM | > 100 µM | > 100 µM | – | > 100 µM | > 100 µM
25 | Cc1ccc(S(=O)(=O)n2cc(C=O)c(-c3cn(S(=O)(=O)c4ccc(C)cc4)cc3-c3cn(S(=O)(=O)c4ccc(C)cc4)cc3C=O)c2)cc1 | > 100 µM | – | > 100 µM | > 100 µM | > 100 µM | > 100 µM | > 100 µM | > 100 µM | > 100 µM | 93.3 µM | > 100 µM | > 100 µM
26 | Nc1nc(Cl)cc(NCC2(CCO)CCC2)n1 | > 100 µM | > 100 µM | > 100 µM | > 10 µM | > 100 µM | > 100 µM | > 100 µM | > 100 µM | > 100 µM | > 100 µM | – | > 100 µM
27 | Cn1c(-c2ccco2)ccc1-c1ccc(C=O)o1 | > 100 µM | > 100 µM | > 100 µM | > 100 µM | > 100 µM | > 100 µM | > 100 µM | 55.2 µM | > 100 µM | 74.6 µM | – | > 100 µM
28 | COc1cc(C2C=C(c3ccccc3)Oc3cc4c(cc32)OCO4)cc(OC)c1OC (stereo unspecified) | > 100 µM | > 100 µM | > 100 µM | > 90.8 µM | > 32.2 µM | > 100 µM | > 19.6 µM | > 100 µM | > 100 µM | > 100 µM | > 100 µM | –
